In PubChem BioAssay (NCI):
Several values for one entry are separate records, joined by “and”; a condition that tells them apart may be missing. Equal entries are not always repeated.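 A five-concentration, 48-hour dose response in 96-well plates underlies each endpoint, interpolated linearly between surrounding concentrations. Here, GI50 denotes the concentration required for 50% inhibition of growth. TGI marks complete inhibition of growth.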

Key:
Experiment in all cases: NCI-60 cell line screen, 48 h
NCI/ADR-RES ovarian = test system: NCI/ADR-RES ovarian
MDA-MB-231 breast = test system: MDA-MB-231 breast
HT29 colon = test system: HT29 colon
EKVX NSCLC = test system: EKVX NSCLC
RPMI-8226 leukemia = test system: RPMI-8226 leukemia
HOP-92 NSCLC = test system: HOP-92 NSCLC
SW-620 colon = test system: SW-620 colon
UACC-62 melanoma = test system: UACC-62 melanoma
A498 renal = test system: A498 renal
T-47D breast = test system: T-47D breast

Row | Compound | GI50 (NCI/ADR-RES ovarian) | TGI (NCI/ADR-RES ovarian) | GI50 (MDA-MB-231 breast) | TGI (MDA-MB-231 breast) | GI50 (HT29 colon) | TGI (HT29 colon) | GI50 (EKVX NSCLC) | TGI (EKVX NSCLC) | GI50 (RPMI-8226 leukemia) | TGI (RPMI-8226 leukemia) | GI50 (HOP-92 NSCLC) | TGI (HOP-92 NSCLC) | GI50 (SW-620 colon) | TGI (SW-620 colon) | GI50 (UACC-62 melanoma) | TGI (UACC-62 melanoma) | GI50 (A498 renal) | TGI (A498 renal) | GI50 (T-47D breast) | TGI (T-47D breast)
1 | CCNc1cc(-c2cccc(OC(F)(F)F)c2)nc2ccc(N3CCCC3)cc12 | 1.83 µM | 6.25 µM | 1.58 µM | 3.16 µM | 2.18 µM | 10.3 µM | 2.49 µM | 11.1 µM | 1.34 µM | 3.92 µM | 1.21 µM | 3.24 µM | 1.6 µM | 3.47 µM | 1.57 µM | 3.07 µM | 1.07 µM | 2.76 µM | 2.11 µM | 7.06 µM
2 | COC(=O)c1cc2c3ccccc3n3c(=O)c4cc5ccc(N(S(=O)(=O)c6ccc(C)cc6)S(=O)(=O)c6ccc(C)cc6)cc5nc4c(n1)c23 | > 100 µM | > 100 µM | 21.4 µM | > 100 µM | > 100 µM | > 100 µM | 53.6 µM | > 100 µM | 43.7 µM | > 100 µM | 12.4 µM | 34.3 µM | > 100 µM | > 100 µM | 29.7 µM | > 100 µM | 34.8 µM | 70.2 µM | > 100 µM | > 100 µM
3 | CN(C)CCNc1ccc(CO)c2sc3ccc(O)cc3c(=O)c12 |  | 17.2 µM |  | 4.24 µM |  | 9.35 µM |  | 19.1 µM |  | 12.8 µM |  | 7.35 µM |  | 10.5 µM |  | 7.75 µM |  | 20.4 µM |  | 7.68 µM
4 | Cc1ncc(C(=O)Nc2ccc(CN3CCN(C)CC3)c(C(F)(F)F)c2)cc1C#Cc1cnc2cccnn12 | 0.997 µM | 4.09 µM | 0.205 µM | 4.15 µM | 0.199 µM | 14.5 µM | 0.683 µM | 2.9 µM | 0.145 µM | 1.29 µM | 0.253 µM | 2.87 µM | 0.239 µM | 2.59 µM | 0.28 µM | 1.32 µM | 0.703 µM | 1.47 µM | 1.91 µM | 12.3 µM
5 | CC(C)Nc1cc(-c2c[nH]c(C(=O)N[C@H](CO)c3cccc(Cl)c3)c2)c(Cl)cn1 | 5.57 µM and > 7.85 µM | 24.4 µM and > 10 µM | 1.67 µM and 1.02 µM | 13.6 µM and > 8.38 µM | 0.0894 µM and 0.0951 µM | 11.6 µM and > 10 µM | 1.97 µM and 0.783 µM | 15.4 µM and > 10 µM | 3.09 µM and 1.14 µM | 45.9 µM and > 10 µM | 0.312 µM and 0.233 µM | 2.84 µM and 1.81 µM | 0.249 µM and 0.296 µM | 16.7 µM and > 10 µM | 0.0826 µM and 0.13 µM | 12.3 µM and > 10 µM | 0.084 µM and 0.255 µM | 1.41 µM and 1.95 µM | 1.77 µM and > 5.23 µM | 16.8 µM and > 10 µM
6 | CCCCCCCCCCCCCCCCCC1=NC(C)(C)CN1CC(C)O (stereo not given) | 3.97 µM | 23.6 µM | 2.02 µM | 4.37 µM | 3.02 µM | 7.42 µM | 13.7 µM | 30.1 µM | 14.4 µM | 36 µM | 3.94 µM | 17.8 µM | 2.15 µM | 4.78 µM | 3.44 µM | 12.5 µM | 15.3 µM | 32.2 µM | 6.58 µM | 28 µM
7 | O=C(Nc1cc(C(F)(F)F)ccc1Cl)c1ccc(NC2=C(Cl)C(=O)N(Cc3ccccc3)C2=O)cc1 | 62.7 µM | > 100 µM | 18.8 µM | 69.2 µM | 26.6 µM | > 100 µM | 46.6 µM | > 100 µM | 2.65 µM | 8.51 µM | 15.7 µM | 56.3 µM | 6.72 µM | > 100 µM | 16.7 µM | 38.9 µM | 69.9 µM | > 100 µM | 14.1 µM | > 100 µM
8 | CC[C@H](Nc1ncnc2nc[nH]c12)c1nc2cccc(F)c2c(=O)n1-c1ccccc1 | 86.8 µM | > 100 µM | 29.8 µM | > 100 µM | 30 µM | > 100 µM | 41.5 µM | > 100 µM | 37.6 µM | > 100 µM | 4.86 µM | > 60.4 µM | 79.7 µM | > 100 µM | 3.52 µM | > 92.4 µM | 1.3 µM | 13 µM | 3.76 µM | > 100 µM
9 | CC(C)c1cnn2c(NCc3ccccc3)cc(NC[C@H]3CCNC[C@@H]3O)nc12 | 15.4 µM and 19.7 µM | 46.9 µM and > 87.5 µM | 0.388 µM and 0.536 µM | 7.52 µM and 3.67 µM | 0.285 µM and 0.369 µM | 10.3 µM and 5.73 µM | 0.861 µM and 0.645 µM | 8.2 µM and 6.07 µM | 0.158 µM and 0.211 µM | 1.82 µM and 4.14 µM | 0.242 µM and 1.31 µM | 4.22 µM and 5.54 µM | 0.239 µM and 0.432 µM | 10.4 µM and 11 µM | 0.236 µM and 0.29 µM | 1.96 µM and 1.92 µM | 1.63 µM and 2.59 µM | 4.2 µM and 8.15 µM | 0.472 µM and 0.898 µM | 7.58 µM and 9.5 µM
10 | Nc1nonc1-c1nc2cnccc2n1C1CC1 | 10.6 µM | > 25 µM | 8.75 µM | > 25 µM | 5.87 µM | > 25 µM | 1.63 µM | > 25 µM | 6.46 µM | 24.4 µM | 0.502 µM | > 25 µM | 5.42 µM | > 25 µM | 7.59 µM | > 25 µM | 1.97 µM | 8.77 µM | 5.7 µM | > 22.3 µM
11 | C=CCNc1nc2c(s1)C(=O)c1ccccc1C2=O |  | 82.8 µM |  | 23.8 µM |  | 50.2 µM |  | 29 µM |  | 17.4 µM |  | 21.8 µM |  | 32.4 µM |  | 9.37 µM |  | 34 µM |  | 68.3 µM
